The numbers were not newly measured in publication PMC3604136 (Nature chemical biology, 2013), which cites them from elsewhere.

This data set relates to HIF-1 and HIF-2.

With acriflavine, the HIF isoform inhibition entry was “inhibits both HIF-1 and HIF-2”.
